These results are taken from patent US10385378B2, “Method for determining toxic substances by plant gel agar coagulation” (priority 2017, dated 2019).

≈ marks a conversion by molar mass, not a printed value. Like-named read-outs stand apart in the source and are kept apart here. A value given as a limit tells only on which side of the number the result lay.

The nature of data set [1]: in vitro. The conditions noted are these: mouse.
Experimental: (§1) The MTT reagent was reduced to the purple crystalline formazan by the mitochondrial enzyme of surviving cells, and the crystals were dissolved by DMSO (Dimethyl Sulfoxide).
(§2) Subsequently, the absorbance of OD570 nm was measured. The color depth was proportional with the number of viable cells. […] After 3-5 hours, the cells were plated on 96-well plates and added to the sample (100 μl per well). After incubation for 24 hours, the MTT reagent (MTT 5 mg/ml dissolved in PBS) was reacted for 1 to 2 hours. The culture medium in the 96-well dish was blotted with the MTT reagent and dissolved in 100 μl of DMSO. The absorbance values were read at a wavelength of 570 nm with an ELISA kit.
A short description of data set [2]: in vitro. To be noted: mouse. This is another data set of the same source.
Experimental: as §1, §2
Data set [3] can be described thus: Cell viability analysis (MTT) cytotoxicity, B16-F10 cells. To be noted: mouse, B16-F10 cells (ATCC CRL-6475).
Experimental: as §1, §2
Data set [4] in a line: Cell viability analysis (MTT) cytotoxicity, skin 3T3 cells. The conditions noted are these: mouse, skin 3T3 cells (ATCC CCL-92).
Experimental: as §1, §2
A short description of data set [5]: Agar coagulation time with cosmetic materials (3% agar). To be noted: for Agar coagulation time with increase of sample concentration vs control group: FIGS. 2-6, mean±SEM, N=3.
Experimental: The agar gel solution is dissolved to form a clear solution by changing the temperature in the range from a room temperature to 25° C. The agar gel solution is held in a carrier, such as a bottle, or a test tube, and is tilted at about 30°-60° (for example, 45°) from the vertical orientation. The coagulation time is defined when the agar gel solution ceases to flow.
The subject method utilizes a carrier (such as, for example, a test tube) to observe the effect of added cosmetic material to the coagulation of agar, so as to assess the toxicity of cosmetic materials. In this example, the present invention further evaluates the relevance of the cosmetic material toxicity based on the agar coagulation time with the cytotoxic IC50 testing.
The agar was prepared to be used as the main application material (the plant gel material) for the present invention, and a sample was prepared to test the coagulation time of the agar (for 25 samples under study) as described above. For example, the concentrations of agar solutions are 1%, 2%, 3%, 4%, 5%, and 6% (w/w). In one of the examples, 3% agar solution was heated to 100° C. to be dissolved, and then 100 ml or 200 ml of agar solution was added to a bottle or a test tube to be mixed with various samples (100 ml, or 200 ml). The bottle, or the test tube, were tilted about 45° relative to a plane each 30 seconds, to observe whether there is coagulation, and the cooling from 100° C. to room temperature and corresponding coagulation times were recorded.
Data set [6] deals with B16-F10 cells.
Experimental: as §1, §2
Data set [7] has as its system skin 3T3 cells.
Experimental: as §1, §2
For data set [8], the system named is B16-F10 cells. Nature of the data set: Cell viability analysis (MTT) cytotoxicity, B16-F10 cells. The conditions noted are these: MTT, incubation for 24 hours.
Experimental: as §1, §2
Data set [9] concerns skin 3T3 cells. Nature of the data set: Cell viability analysis (MTT) cytotoxicity, skin 3T3 cells. The conditions noted are these: MTT, incubation for 24 hours.
Experimental: as §1, §2
Setting [10] is: sample concentration 10 % (w/w).
[11] abbreviates: sample concentration 20 % (w/w).
Where [12] appears, read: sample concentration 30 % (w/w).
The mark [13] stands for this setting: sample concentration 15 % (w/w).

As for `Nc1ccccc1O` [2-Aminophenol], the figures for the half-maximal inhibitory concentration (IC50) in “in vitro [1]” and in “in vitro [2]” were 41.2 µg/mL (≈ 0.378 mM) and 39.3 µg/mL (≈ 0.36 mM), respectively.
Regarding `Nc1cccc(O)c1` [3-Aminophenol], the IC50 (usually the concentration needed to halve the response being measured) at 24 h was found to be 126 µg/mL (≈ 1.16 mM) in data set [3] and 308 µg/mL (≈ 2.82 mM) in data set [4]. Moreover, the Agar coagulation time in data set [5] (sample concentration 1 % (w/w)) stood at 16.489 ± 0.475 min; in data set [5] (sample concentration 5 % (w/w)), 20.455 ± 0.968 min; in [5] (setting [10]), 24.478 ± 1.280 min; in [5] (setting [11]), 43.671 ± 0.886 min; in data set [5] (setting [12]), 67.444 ± 1.687 min.
In the case of `CCCCCCCCCCCCOS(=O)(=O)O.N` [AmmoniumLauryl Sulfate, Ammonium Lauryl Sulfate], the “Agar coagulation time with increase of sample concentration vs control group” value in data set [5] is “significantly longer”. Moreover, the Agar coagulation time in data set [5] (sample concentration 1 % (w/w)) is given as 16.444 ± 0.477 min; in data set [5] (sample concentration 5 % (w/w)) it was 18.811 ± 0.987 min; in data set [5] (setting [10]), 28.372 ± 1.287 min; in data set [5] (setting [13]), 39.572 ± 1.077 min.
Regarding `CCCCOC(=O)c1ccc(O)cc1` [Butyl Paraben], the Agar coagulation time in data set [5] (sample concentration 1 % (w/w)) is 13.186 ± 0.080 min; in data set [5] (sample concentration 5 % (w/w)) it was 13.210 ± 0.079 min; in data set [5] (setting [10]), 13.182 ± 0.076 min; in [5] (setting [11]) it was 13.141 ± 0.050 min; in [5] (setting [12]) it was 13.238 ± 0.107 min.
Take `CC(O)CCO` (centres unmarked) [Butylene Glycol]: the IC50 in the data set “in vitro [1]” was found to be 7320 µg/mL (≈ 81.3 mM). Further, the “B16-F10 cytotoxicity IC50” value with B16-F10 cells [6] is over 10000 µg/mL.
With `OCC(O)CO` [Glycerin], the Agar coagulation time in [5] (sample concentration 1 % (w/w)) worked out at 13.220 ± 0.081 min; in data set [5] (sample concentration 5 % (w/w)), 13.228 ± 0.053 min; in data set [5] (setting [10]), 13.333 ± 0.087 min; in data set [5] (setting [11]), 13.265 ± 0.067 min; in data set [5] (setting [12]), 13.322 ± 0.091 min.
As for `OO` [Hydrogen Peroxide], the IC50 at 24 h stood at 48.9 µg/mL (≈ 1.44 mM) in data set [3] and 63.7 µg/mL (≈ 1.87 mM) in data set [4]. Also, the “Classification harmful / not harmful to skin by agar coagulation time compared with cell survival analysis” value in [5] is “harmful to skin”. Moreover, the Agar coagulation time is 18.406 ± 0.121 min in data set [5] (sample concentration 1 % (w/w)), 30.544 ± 0.139 min in data set [5] (sample concentration 5 % (w/w)), 91.139 ± 0.257 min in data set [5] (setting [10]) and over 1440 min in data set [5] (sample concentration 17.5 % (w/w)).
Consider `CCCCCCCCCCCCCC(=O)OC(C)C` [Isopropyl Myristate], for which the 50% inhibitory concentration (IC50) at 24 h in data set [3] and in data set [4] was over 10000 µg/mL each time. For the same compound, the Agar coagulation time is 13.153 ± 0.056 min in data set [5] (sample concentration 1 % (w/w)); 13.186 ± 0.069 min in data set [5] (sample concentration 5 % (w/w)); 13.185 ± 0.066 min in [5] (setting [10]); 13.172 ± 0.065 min in [5] (setting [11]); 13.206 ± 0.087 min in data set [5] (setting [12]).
`CC(O)C(=O)O` (centres unmarked) [Lactic acid]: the IC50 at 24 h in data set [3] worked out at 66 µg/mL (≈ 0.733 mM); in data set [4], 30.5 µg/mL (≈ 0.338 mM). The “Classification harmful / not harmful to skin by agar coagulation time compared with cell survival analysis” value in data set [5] was “harmful to skin”. Moreover, the Agar coagulation time in data set [5] (sample concentration 1 % (w/w)) is recorded as 18.299 ± 0.078 min; in [5] (sample concentration 5 % (w/w)), 23.378 ± 0.091 min; in data set [5] (setting [10]), 43.302 ± 0.099 min; in data set [5] (setting [11]) it was 253.306 ± 0.124 min; in data set [5] (setting [12]), over 1440 min.
In the case of `Cl.NCCCC[C@H](N)C(=O)O` [Lysine hydrochloride], the Agar coagulation time is on record as 13.241 ± 0.080 min in [5] (sample concentration 1 % (w/w)); 13.198 ± 0.077 min in data set [5] (sample concentration 5 % (w/w)); 13.238 ± 0.100 min in data set [5] (setting [10]); 13.254 ± 0.119 min in [5] (setting [11]); 13.286 ± 0.147 min in [5] (setting [12]).
With `Cn1sc(Cl)cc1=O` [Methylchloroisothiazolinone], the “B16-F10 cytotoxicity IC50” value with B16-F10 cells [6] came to 58 µg/mL. In the data set on skin 3T3 cells [7], the “Skin cell 3T3 Cytotoxicity IC50” value came to 36.5 µg/mL.
`NCCO` [Monoethanolamine]: the IC50 at 24 h in [3] came to 3650 µg/mL (≈ 59.7 mM). Besides, the Agar coagulation time is 13.193 ± 0.067 min in data set [5] (sample concentration 1 % (w/w)); 13.251 ± 0.077 min in data set [5] (sample concentration 5 % (w/w)); 13.296 ± 0.066 min in [5] (setting [10]); 13.345 ± 0.088 min in data set [5] (setting [11]); 13.354 ± 0.083 min in [5] (setting [12]).
Consider `Oc1cccc(O)c1` [Resorcinol], for which the IC50 at 24 h in data set [3] turned out to be 4930 µg/mL (≈ 44.8 mM); in [4] it was 9860 µg/mL (≈ 89.5 mM). In addition, the Agar coagulation time in data set [5] (sample concentration 1 % (w/w)) is on record as 32.821 ± 0.082 min; in [5] (sample concentration 5 % (w/w)), 238.511 ± 0.101 min; in data set [5] (setting [10]), over 4320 min; in data set [5] (setting [11]) it was over 4320 min; in data set [5] (setting [12]), over 4320 min.
For the compound `O=C(O)c1ccccc1O` [Salicylic Acid], the IC50 at 24 h in data set [3] was 414 µg/mL (≈ 3 mM); in data set [4], 1390 µg/mL (≈ 10.1 mM). For the same compound, the Agar coagulation time in data set [5] (sample concentration 1 % (w/w)) turned out to be 13.210 ± 0.087 min; in data set [5] (sample concentration 5 % (w/w)), 13.221 ± 0.091 min; in [5] (setting [10]), 13.144 ± 0.068 min; in data set [5] (setting [11]), 13.219 ± 0.093 min; in data set [5] (setting [12]) it was 13.184 ± 0.063 min.
For `CC(C)CCCC(C)CCCC(C)CCCCC(C)CCCC(C)CCCC(C)C` (centres unmarked) [Squalane], the IC50 at 24 h is 5420 µg/mL (≈ 12.8 mM) in [3] and over 10000 µg/mL in data set [4]. Moreover, the Agar coagulation time is recorded as 13.260 ± 0.068 min in [5] (sample concentration 1 % (w/w)); 13.199 ± 0.073 min in data set [5] (sample concentration 5 % (w/w)); 13.276 ± 0.081 min in [5] (setting [10]); 13.254 ± 0.077 min in data set [5] (setting [11]); 13.305 ± 0.097 min in data set [5] (setting [12]).
Regarding `CC(=O)Oc1c(C)c(C)c2c(c1C)CCC(C)(CCC[C@H](C)CCC[C@H](C)CCCC(C)C)O2` (some centres unmarked) [Tocopherol Acetate], the IC50 at 24 h in data set [3] and in data set [4] was over 10000 µg/mL throughout. Besides, the Agar coagulation time is 13.200 ± 0.080 min in data set [5] (sample concentration 1 % (w/w)); 13.209 ± 0.079 min in data set [5] (sample concentration 5 % (w/w)); 13.185 ± 0.072 min in data set [5] (setting [10]); 13.167 ± 0.066 min in [5] (setting [11]); 13.192 ± 0.071 min in data set [5] (setting [12]).
On to `O.O.O=C([O-])CC(O)(CC(=O)[O-])C(=O)[O-].[Na+].[Na+].[Na+]` [Trisodium Citrate Dihydrate], for which the “B16-F10 cytotoxicity IC50” value in the data set on B16-F10 cells [6] came to 3335.4 µg/mL. Besides, the “Skin cell 3T3 Cytotoxicity IC50” value in the data set with skin 3T3 cells [7] was over 10000 µg/mL.
As for `COC(=O)c1ccc(O)cc1` [methyl p-hydroxybenzate], the IC50 at 24 h in data set [3] is 4850 µg/mL (≈ 31.9 mM); in data set [4], over 10000 µg/mL. For the same compound, the Agar coagulation time in data set [5] (sample concentration 1 % (w/w)) turned out to be 13.230 ± 0.084 min; in data set [5] (sample concentration 5 % (w/w)), 13.197 ± 0.066 min; in [5] (setting [10]), 13.242 ± 0.087 min; in data set [5] (setting [11]) it was 13.208 ± 0.100 min; in data set [5] (setting [12]), 13.203 ± 0.090 min.
Regarding `Nc1ccc(N)cc1` [p-Phenylenediamine], the “Agar coagulation time with increase of sample concentration vs control group” value in [5] is reported as “significantly longer”. In addition, the Agar coagulation time in data set [5] (sample concentration 1 % (w/w)) is 16.245 ± 0.468 min; in data set [5] (sample concentration 5 % (w/w)), 22.189 ± 0.782 min; in data set [5] (setting [10]), 27.500 ± 1.073 min; in [5] (setting [11]), 39.489 ± 1.572 min; in data set [5] (setting [12]), 52.689 ± 1.982 min.
For `O.O.O.O.O.O.O.O.O.[Na+].[Na+].[S-2]` [sodium Sulfide-9-Hydrate], the “B16-F10 cytotoxicity IC50” value with B16-F10 cells [6] was 4187.1 µg/mL. Moreover, the “Skin cell 3T3 Cytotoxicity IC50” value in the data set on skin 3T3 cells [7] is over 10000 µg/mL.
As for Disodium Lauroamphodiacetate, the “B16-F10 cytotoxicity IC50” value in the data set on B16-F10 cells [8] was found to be 72.8 µg/mL. For the same compound, the “Skin cell 3T3 Cytotoxicity IC50” value in the data set on skin 3T3 cells [9] is 55.6 µg/mL. Moreover, in data set [5], the “Classification harmful / not harmful to skin by agar coagulation time compared with cell survival analysis” value is reported as “harmful to skin”. Further, the Agar coagulation time came to 14.356 ± 0.097 min in [5] (sample concentration 1 % (w/w)), 20.422 ± 0.106 min in data set [5] (sample concentration 5 % (w/w)), 43.333 ± 0.112 min in data set [5] (setting [10]) and 87.784 ± 0.176 min in data set [5] (setting [13]).
